Paper PMC11312998, “Molecular Pro-Apoptotic Activities of Flavanone Derivatives in Cyclodextrin Complexes: New Implications for Anticancer Therapy” (International Journal of Molecular Sciences, 2024)
Like-named read-outs stand apart in the source and are kept apart here.

Columns and labels:
Ishikawa [1] = experiment: MTT cytotoxicity assay; type: cell-based; conditions: Homo sapiens
Method: Cell viability was determined using the metabolic microplate spectrophotometric assay with Methylthiazolyl diphenyltetrazolium bromide (MTT), i.e., 3-(4,5-Dimethyl-2-thiazolyl)-2,5-diphenyl-2H-tetrazolium bromide (Sigma-Aldrich; St. Louis, MO, USA). The anticancer activity of the investigated compounds was evaluated in vitro on the basis of their ability to inhibit the proliferation of various cancer cells. The appropriate number of cells for a given cell line (6–8 × 10^3 cells/mL) were seeded into sterile, colorless 96-well microplates. After 24 h of culture, specific wells of the microplate were treated with test compounds (10–200 µmol/L concentration) and incubated in a CO2 incubator for 24 h. The medium was then removed, the cell monolayer was washed twice with sterile PBS solution and fresh culture medium was added to the wells of the microplate.
After 48 h of cell culture, the MTT test was conducted. In each well of the microplate, 50 µL of tetrazolium salt solution (final concentration 0.05 mg/mL) was added. The microplate was then placed in a CO2 incubator for 3–4 h (depending on the cell line). Following incubation, 100 µL of DMSO (dimethyl sulfoxide, Sigma-Aldrich, St. Louis, MO, USA) was added to the microplate wells to dissolve the purple formazan crystals formed in the environment of living cells. The absorbance of the formazan solution was read at a wavelength of λ = 580 nm and a reference wavelength of λ = 720 nm after gentle mixing (Biotek Power Wave HT, Biotek Instruments, Winooski, VT, USA).
The percentage of live cells was calculated by comparing the absorbance value of the tested samples with that of the control (cells not treated with compounds). Control absorbance was arbitrarily considered to be 100%. […]

[2] = tested on: extrinsic coagulation pathway; experiment: Prothrombin time (PT); type: biochemical, human; conditions: 1–100 µmol/L
Method: Basic coagulation parameters were determined using Bio-Ksel reagents (Grudziądz, Poland): APTT reagent, calcium chloride, Bio-Ksel PT plus reagent (tromboplastin and solvent) and thrombin (3.0 UNIH/mL) for TT experiments. The methods were calibrated and the coefficient of variation (PT, APTT, TT experiments) was calculated using a calibrator (Bio-Ksel, Grudziadz, Poland), normal plasma (Bio-Ksel, Grudziądz, Poland) and water for injection (Polpharma, Gdańsk, Poland).
Control samples consisting of distilled water and methanol were tested. All methods were validated using Bio-Ksel normal plasma, which was dissolved in water for injection (Polpharma, Gdańsk, Poland). The reference values for each test are as follows: PT: 9.7–13.8 s; INR: 0.9–1.2; APTT: 28.2–42.3 s; TT: 11.0–16.5 s for 3.0 UNIH/mL of thrombin.

MDA-MB-231 = experiment: Nitric oxide (RNS) generation, DAF-FM diacetate probe; type: cell-based, human; conditions: IC50 concentration, 24 h
Method: Diaminofluorescein-FM diacetate (DAF-FM diacetate, Invitrogen, Carlsbad, CA, USA), is a widely employed cell permeant fluorescent reagent for the detection and quantification of reactive nitrogen species (RNS), particularly nitric oxide (NO). […] However, upon reaction with NO, it undergoes a transformation that yields a highly fluorescent benzotriazole derivative (excitation/emission maxima: λex = 495, λem = 515 nm).
The cells were seeded in black 96-well fluorometric microplates at a density of 10 × 10^3 cells per well. […] After incubation with the compounds, the medium was removed, the cell monolayer in the wells was washed twice with HBSS (140 mM NaCl, 5 mM KCl, 0.8 mM MgCl2, 1.8 mM CaCl2, 1 mM Na2HPO4, 10 mM HEPES and 1% glucose) and 50 μL of DAF-FM diacetate solution in HBSS was added to each well (final probe concentration 5 μmol/L). Cells were incubated with the probe for 30 min in the dark in an incubator (37 °C). After incubation, the probe was removed and replaced with fresh HBSS buffer and then incubated for an additional 30 min to allow for complete de-esterification of the intra cellular diacetates. After this time, the fluorescence was measured. The measurement was performed at the following excitation and fluorescence emission wavelengths: λex = 495 nm/λem = 515 nm. Fluorescence was measured on a Perkin-Elmer LS-5B spectrofluorometer (MA, USA). Fluorescence intensity values for control cells were arbitrarily set as 100%. The results are presented as percentages of control cells calculated on the basis of a comparison of the fluorescence intensity ratio of test samples and controls (100%) (fluorescence of samples was calculated as Δf in relation to the control).

MCF-7 = experiment: Mitochondrial potential (ΔΨm), JC-1 method; type: cell-based, human; conditions: IC50 concentration, 24 h
Excerpt: (§1) 5,5,6,6-Tetrachloro-1,1,3,3-tetraethylbenzimidazolylcarbocyanine iodide (JC-1) is a cationic carbocyanine dye commonly used as a fluorescent probe to detect mitochondrial membrane depolarization. In living cells with an intact mitochondrial membrane, the lipophilic JC-1 penetrates the negatively charged mitochondrial matrix as a monomer. It then forms fluorescent aggregates with red-orange fluorescence (λex = 514 nm, λem = 590 nm). During depolarization of the mitochondrial membrane or in apoptotic cells, the concentration of JC-1 decreases, and the aggregates disintegrate into monomers emitting green fluorescence (λex = 514 nm, λem = 529 nm). The fluorescence ratio of aggregates (λem = 590 nm) and monomers (λem = 529 nm)—590 nm/529 nm—reflects the level of damage to the mitochondrial membrane.
(§2) The cells were seeded in black 96-well fluorometric microplates at a density of 10 × 10^3 cells per well. […] After incubation with the compounds, the medium was removed, the cell monolayer in the wells was washed twice with HBSS (140 mM NaCl, 5 mM KCl, 0.8 mM MgCl2, 1.8 mM CaCl2, 1 mM Na2HPO4, 10 mM HEPES and 1% glucose) and 50 μL of JC-1 solution in HBSS was added to each well (final probe concentration 5 μmol/L). Cells were incubated with the probe for 30 min in the dark in an incubator (37 °C). After incubation, the probe was removed and replaced with fresh HBSS buffer. Fluorescence measurements (Perkin-Elmer LS-5B spectrofluorometer, MA, USA) of JC-1 monomers and aggregates were made at the following excitation and emission wavelengths: λex = 514 nm, λem = 529 nm (monomers), λex = 514 nm, λem = 590 nm (aggregates). The results of the tested samples are presented as the percentage fluorescence ratio of JC-1 aggregates and JC-1 monomers relative to the fluorescence ratio of JC-1 aggregates and JC-1 monomers of the control, which was assumed to be 100%.
(§3) A positive control was formed of cells pre-incubated with 5 µmol/L carbonyl cyanide m-chlorophenylhydrazone (CCCP), a chemical inhibitor of oxidative phosphorylation that acts by uncoupling the protons flowing along the electrochemical gradient from phosphorylation.

Ishikawa [3] = experiment: Mitochondrial potential (ΔΨm), JC-1 method; type: cell-based, human; conditions: IC50 concentration, 24 h
Excerpt: as §1, §2, §3

Hec-1-A = experiment: Mitochondrial potential (ΔΨm), JC-1 method; type: cell-based, human; conditions: IC50 concentration, 24 h
Excerpt: as §1, §2, §3

[4] = Ishikawa vs HMEC-1, read-out: IC50 in Ishikawa lower than that for HMEC-1, difference
[5] = Ishikawa, 24 h incubation, mean ± SEM, read-out: Cytotoxic effect, IC50

With `O=C1/C(=C/c2ccccc2)C(c2ccccc2)Oc2ccccc21` (centres unmarked) [Compound 5] the IC50 (Ishikawa [1]; [4]) was ~10 µM, the IC50 (Ishikawa [1]; [5]) was 18.6 ± 4.4 µM and the “prothrombin time (PT), difference compared to controls (in words)” value [2] was “No statistically significant differences”. For the same compound, the “increase in nitric oxide level (DAF-FM)” value (MDA-MB-231) was “approximately 15%”, the “hyperpolarization of ΔΨm” value (MCF-7) was ~40% and the “hyperpolarization of mitochondrial membranes relative to controls” value (Ishikawa [3]) was “approximately 30%”. The “changes in ΔΨm (in words)” value (Hec-1-A) was “no changes in ΔΨm were observed”.
With `O=C1/C(=C/c2ccccc2)COc2ccccc21` [Compound 1] the IC50 (Ishikawa [1]; [4]) was ~10 µM, the IC50 (Ishikawa [1]; [5]) was 10.2 ± 1.8 µM and the “increase in nitric oxide level (DAF-FM)” value (MDA-MB-231) was “approximately 20%”. The “decrease in ΔΨm (depolarization) compared to the control” value (MCF-7) was “approximately 17%”, the “decrease in ΔΨm” value (Ishikawa [3]) was “approximately 30%” and the “hyperpolarization of ΔΨm compared to control” value (Hec-1-A) was “approximately 30%”.
For `COc1cccc(/C=C2/C(=O)c3ccccc3OC2c2ccccc2)c1` (centres unmarked) [Compound 3], the IC50 (Ishikawa [1]; [4]) was ~10 µM, the IC50 (Ishikawa [1]; [5]) was 15.2 ± 1.6 µM and the “prothrombin time (PT), difference compared to controls (in words)” value [2] was “No statistically significant differences”. For the same compound, the “increase in nitric oxide level (DAF-FM)” value (MDA-MB-231) was “approximately 15%”, the “hyperpolarization of ΔΨm” value (MCF-7) was “approximately 30%” and the “decrease in ΔΨm” value (Ishikawa [3]) was “about 15%”. For the same compound, the “changes in ΔΨm (in words)” value (Hec-1-A) was “no changes in ΔΨm were observed”.
